Measurements published in patent US10766912B2 (priority 2017, dated 2020).
Where two headings read alike, the source gives them in different places.

Experiments:
[1] = system: HCV GT1a wild-type replicon; test: Assay Example 6: drug resistance, activity against HCV GT1a wild-type replicon; format: cell-based; conditions: Hepatitis C virus, 72 h, Huh-7 cells, transient transfection, 3 days, read-out: GT1a-wt EC50 value
Description: (§1) Cells: Huh-7 cells are liver cancer cell strains (from AppTec, USA), HCVGT1a wild-type replicon and GT1a-NS5A-Y93H and GT1a-NS5A-L31V mutant replicons
(§2) Treatment of Compound: According to the assay final concentrations of the compounds in Table 11, DMSO stock solutions of the compounds were diluted and then added to a 96-well assay plate. The final concentration of DMSO was 0.5%.
(§3) The preparation of cells: After replicon plasmid DNA was linearized with a corresponding restriction enzyme, the DNA was transcribed into RNA by using T7 RNA polymerase. Replicon RNA prepared by transcription in vitro was transfected into Huh-7 cells by electroporation. Transfected cells were seeded at a density of 10,000 cells per well into the 96-well assay plate containing the diluted compounds, and then placed in a 37° C. incubator with 5% CO2 and cultured for 3 days.
(§4) Compound activity assay: Luminescence signal value (RLU) was detected with Envision within 5 minutes by using the luciferase assay reagent Britelite plus, and the original data (RLU) was used for the calculation of the activity of the compounds.
(§5) The activity of the compounds was calculated by using the equation below: Inhibition %=(CPD−ZPE)/(HPE−ZPE)×100%*
(§6) The compound activity percentages (Inhibition %) were imported into GraphPad Prism software, and curves were fitted by using nonlinear regression method to obtain the corresponding curves of the compounds and the inhibitory activity (EC50) values against the HCV replicon thereof.

[2] = system: GT1a-NS5A-L31V mutant replicon; test: Assay Example 6: drug resistance, activity against GT1a-NS5A-L31V mutant replicon; format: cell-based, hepatitis C virus; conditions: for GT1a-NS5A-L31V Fold change: EC50 mutant versus GT1a-wt; for EC50: Hepatitis C virus, GT1A, Huh-7, 72 h, read-out: GT1a-NS5A-L31V EC50 value
Description: as §1, §2, §3, §4, §5, §6

[3] = system: HCV GT1a wild type (wt) replicon; test: Assay Example 2: activity against HCV GT1a wild-type replicon; format: cell-based; conditions: Hepatitis C virus, 72 h, Huh-7 cells, transient transfection, 3 days
Description: (§7) Cells: Huh-7 cells are liver cancer cell strains (from AppTec, USA), HCV GT1a and GT1b wild type (wt) replicons, GT1b/3a, GT1b/4a, GT1b/5a and GT1b/6a NS5A chimeric replicons.
(§8) Treatment of Compound: According to the assay final concentrations of the compounds in Table 5, DMSO stock solutions of the compounds were diluted and then added to a 96-well assay plate. The final concentration of DMSO was 0.5%.
as §3
(§9) Drug activity assay: Luminescence signal value (RLU) was detected with Envision within 15 minutes using the luciferase assay reagent Britelite plus, and the original data (RLU) was used for the calculation of the activity of the compounds.
(§10) The cytotoxicity of the compounds was calculated by using the equation below: Cell Viability %=(CPD−HPE)/(ZPE−HPE)×100%* The activity of the compounds was calculated by using the equation below: Inhibition %=(ZPE−CPD)/(ZPE−HPE)×100%*
(§11) The cell viability percentages (Viability %) and the inhibition percentages (Inhibition %) were imported into GraphPad Prism software, respectively, and curves were fitted by using nonlinear regression method to obtain the corresponding curves of the compounds, and the cytotoxicity (CC50) thereof and the inhibitory activity (EC50) values against the HCV replicon thereof.

[4] = Assay Example 2: cell viability assay (CellTiter-Fluor), GT1b wild-type replicon plate; format: cell-based; conditions: human, Huh-7 cells with GT1b wild-type replicon, read-out: CC50 Value GT1b-wt
Description: as §7, §8, §3
Cell viability assay: A cell growth fluorescent titration detection reagent CellTiter-Fluor was added to the 96-well plate of the GT1b wild-type replicon. After the cells were cultured for 1 hour in a 37° C. incubator with 5% CO2, the fluorescence signal value (RFU) was detected by Envision, and the original data (RFU) was used for the calculation of the cytotoxicity of the compounds.
as §10, §11

[5] = system: HCV GT1b wild type (wt) replicon; test: Assay Example 2: activity against HCV GT1b wild-type replicon; format: cell-based; conditions: Hepatitis C virus, read-out: EC50 Value GT1b-wt
Description: as §7, §8, §3, §9, §10, §11

[6] = system: GT1a-NS5A-Y93H mutant replicon; test: Assay Example 6: drug resistance, activity against GT1a-NS5A-Y93H mutant replicon; format: cell-based, hepatitis C virus; conditions: for GT1a-NS5A-Y93H Fold change: EC50 mutant versus GT1a-wt; for EC50: Hepatitis C virus, GT1A, Huh-7, 72 h, read-out: GT1a-NS5A-Y93H EC50 value
Description: as §1, §2, §3, §4, §5, §6

[7] = system: HCV GT1b/3a NS5A chimeric replicon; test: Assay Example 2: activity against GT1b/3a NS5A chimeric replicon; format: cell-based; conditions: Hepatitis C virus, Huh-7, 72 h, read-out: EC50 Value GT1b/3a-NS5A-wt
Description: as §7, §8, §3, §9, §10, §11

[8] = system: HCV GT1b/6a NS5A chimeric replicon; test: Assay Example 2: activity against GT1b/6a NS5A chimeric replicon; format: cell-based; conditions: Hepatitis C virus, Huh-7, 72 h, read-out: EC50 Value GT1b/6a-NS5A-wt
Description: as §7, §8, §3, §9, §10, §11

[9] = system: HCV GT1b/5a NS5A chimeric replicon; test: Assay Example 2: activity against GT1b/5a NS5A chimeric replicon; format: cell-based; conditions: Hepatitis C virus, Huh-7, 72 h, read-out: EC50 Value GT1b/5a-NS5A-wt
Description: as §7, §8, §3, §9, §10, §11

[10] = Assay Example 3: parallel cytotoxicity assay (alamarBlue) without viral infection; format: cell-based; conditions: human, Huh7.5.1 cells without viral infection, no viral infection, read-out: CC50 Value HCVcc
Description: (§12) Cells: Huh7.5.1 cells and hepatitis C virus HCVcc (GT2a, JFH-1) infection system.
(§13) Treatment of Compound: According to the assay final concentrations of the compounds in Table 6, DMSO stock solutions of the compounds were diluted and then added to a 96-well assay plate. The final concentration of DMSO was 0.5%.
(§14) Viral infection: Huh7.5.1 cells were seeded in a 96-well cell culture plate, and the cells were cultured overnight at 37° C. in an incubator with 5% CO2 for later use. The compound and the HCVcc virus solution (MOI=0.1) were simultaneously added to the cells, and the virus infection was cultured for 3 days. Parallel cytotoxicity assay was identical to the method for the inhibition of the virus but without viral infection.
Cell viability assay: Cell viability was detected by the addition of alamarBlue assay reagent. The original data (RFU) was used for the calculation of the cytotoxicity of the compounds.
The cytotoxicity of the compounds was calculated by using the equation below: Cell Viability %=CPD/CC×100%*
(§15) The cell viability percentages (Cell Viability %) and the compound activity percentages (Inhibition %) were imported into GraphPad Prism software, respectively, and curves were fitted by using nonlinear regression method to obtain the corresponding curves of the compounds, and the cytotoxicity (CC50) thereof and inhibitory activity (EC50) values against the HCV replicon thereof.

[11] = system: HCV GT1b/4a NS5A chimeric replicon; test: Assay Example 2: activity against GT1b/4a NS5A chimeric replicon; format: cell-based; conditions: Hepatitis C virus, Huh-7, 72 h, read-out: EC50 Value GT1b/4a-NS5A-wt
Description: as §7, §8, §3, §9, §10, §11

[12] = system: hepatitis C virus HCVcc (GT2a, JFH-1); test: Assay Example 3: activity against infective hepatitis C virus HCVcc (GT2a, JFH-1); format: cell-based; conditions: Huh-7.5.1, 72 h, read-out: EC50 Value GT2a HCVcc
Description: as §12, §13, §14
Drug activity assay: The activity of hRLuc was detected by the addition of Renilla luciferase assay reagent. The original data (RLU) was used for the calculation of the activity of the compounds.
The activity of the compounds was calculated by using the equation below: Inhibition %=(CPD−VC)/(CC−VC)×100%*
as §15

[13] = Huh-7 cells transfected with HCV GT1b wild-type replicon RNA
[14] = 72 h, Huh-7 cells, transient transfection, 3 days

COC(=O)N[C@H](C(=O)N1CCC[C@H]1c1nc2cc([C@H]3CC[C@H](c4ccc5[nH]c([C@@H]6CCCN6C(=O)[C@@H](NC(=O)OC)[C@@H](C)OC)nc5c4)N3c3cc(F)c(N4CC[Si]5(CCCC5)CC4)c(F)c3)ccc2[nH]1)[C@@H](C)OC [Compound 7b]
EC50 [1]: 1.8 pM | GT1a-NS5A-L31V Fold change [2]: 3.4 | EC50 [2]: 6.1 pM | EC50 [3]: 1.44 pM | CC50 at 3 days [4, 13]: > 200 pM | EC50 [5, 14]: 3.3 pM | GT1a-NS5A-Y93H Fold change [6]: 502 | EC50 [6]: 903 pM | EC50 [7]: 10.3 pM

COC(=O)N[C@H](C(=O)N1CCCC1C(=O)Nc1ccc([C@H]2CC[C@H](c3ccc(-c4cnc([C@@H]5CCCN5C(=O)[C@@H](NC(=O)OC)[C@@H](C)OC)[nH]4)cc3)N2c2cc(F)c(N3CC[Si](C)(C)CC3)c(F)c2)cc1)[C@@H](C)OC (stereo partly drawn) [Compound 8b, Methyl ((2S,3R)-1-((S)-2-((4-((2R,5R)-1-(4-(4,4-dimethylazasilinan-1-yl)-3,5-difluorophenyl-5-(4-(2-((S)-1-(N-methoxycarbonyl)-O-methyl-L-threonyl)pyrrolidin-2-yl)-1H-imidazazol-5-yl)phenyl)pyrrolidin-2-yl)phenyl)carbamoyl)pyrrolidin-1-yl)-3-methoxy-1-oxobutan-2-yl)carbamate]
CC50 at 3 days [4, 13]: > 200 pM | EC50 [8]: 6.73 pM | EC50 [5, 14]: 1.59 pM | EC50 [7]: 67.9 pM

COC(=O)N[C@H](C(=O)N1CCC[C@H]1c1nc2cc([C@H]3CC[C@H](c4cc5nc([C@@H]6CCCN6C(=O)[C@@H](NC(=O)OC)[C@@H](C)OC)[nH]c5cc4F)N3c3cc(F)c(N4CC[Si](C)(C)CC4)c(F)c3)c(F)cc2[nH]1)[C@@H](C)OC [Compound 9b]
EC50 [1]: 2 pM | GT1a-NS5A-L31V Fold change [2]: 0.9 | EC50 [2]: 1.7 pM | EC50 [9]: 6.08 pM | EC50 [3]: 1.01 pM | CC50 at 3 days [4, 13]: > 200 pM | EC50 [8]: 1.13 pM | EC50 [5, 14]: 5.28 pM | CC50 at 3 days [10]: > 100 pM | GT1a-NS5A-Y93H Fold change [6]: 20.0 | EC50 [6]: 40 pM | EC50 [11]: 2.49 pM | EC50 [7]: 3.8 pM

COC(=O)N[C@H](C(=O)N1CCC[C@H]1C(=O)Nc1ccc([C@@H]2CC[C@@H](c3ccc(NC(=O)[C@@H]4CCCN4C(=O)[C@@H](NC(=O)OC)[C@@H](C)OC)cc3)N2c2cc(F)c(N3CC[Si]4(CCCCC4)CC3)c(F)c2)cc1)[C@@H](C)OC [Compound 11a]
CC50 at 3 days [4]: > 200 pM | EC50 [8]: 1.69 pM | EC50 ([5]; Huh-7, 72 h): 1.34 pM | EC50 [7]: 8.8 pM

COC(=O)N[C@H](C(=O)N1CCC[C@H]1C(=O)Nc1ccc([C@H]2CC[C@H](c3cc4[nH]c([C@@H]5CCCN5C(=O)[C@@H](NC(=O)OC)[C@@H](C)OC)nc4cc3F)N2c2cc(F)c(N3CC[Si](C)(C)CC3)c(F)c2)cc1)[C@@H](C)OC [Compound 14b]
EC50 [1]: 2.9 pM | GT1a-NS5A-L31V Fold change [2]: 11.0 | EC50 [2]: 32 pM | EC50 [9]: 5.37 pM | EC50 [3]: 1.07 pM | CC50 at 3 days [4, 13]: > 200 pM | EC50 [8]: 1.12 pM | EC50 [5, 14]: 2.92 pM | CC50 at 3 days [10]: > 100 pM | EC50 [11]: 1.59 pM | EC50 [7]: 6.11 pM

COC[C@H]1C[C@@H](C(=O)Nc2ccc([C@H]3CC[C@H](c4cc5[nH]c([C@@H]6CCCN6C(=O)[C@@H](NC(=O)OC)[C@@H](C)OC)nc5cc4F)N3c3cc(F)c(N4CC[Si](C)(C)CC4)c(F)c3)cc2)N(C(=O)[C@@H](NC(=O)OC)[C@@H](C)OC)C1 [Compound 17b]
EC50 [12]: 2.68 pM | EC50 [9]: 4.66 pM | CC50 at 3 days [4, 13]: > 200 pM | EC50 [8]: 1.09 pM | EC50 [5, 14]: 3.06 pM | CC50 at 3 days [10]: > 100 pM | EC50 [11]: 1.66 pM | EC50 [7]: 5.71 pM

COC[C@H]1C[C@@H](C(=O)Nc2ccc([C@H]3CC[C@H](c4ccc5nc([C@@H]6CCCN6C(=O)[C@@H](NC(=O)OC)[C@@H](C)OC)[nH]c5c4)N3c3cc(F)c(N4CC[Si](C)(C)CC4)c(F)c3)cc2)N(C(=O)[C@@H](NC(=O)OC)[C@@H](C)OC)C1 [Compound 18b]
EC50 [12]: 1.15 pM | EC50 [9]: 4.5 pM | CC50 at 3 days [4, 13]: > 200 pM | EC50 [8]: 1.75 pM | EC50 [5, 14]: 2.59 pM | CC50 at 3 days [10]: > 100 pM | EC50 [7]: 7.14 pM
